We go through 21 molecules from PubChem BioAssay (NCI).

Each structure is given as a SMILES string.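 Test compounds were applied to cells in 96-well plates for 48 hours at 5 doses. At the GI50, growth is halved. Definition used: TGI = concentration required for complete inhibition of growth.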 Where a SMILES comes first, the peptide text is derived from it. The star is where a group is joined. Boc = CC(C)(C)OC(=O)*

Some test systems named below: BT-549 breast; OVCAR-5 ovarian; DU-145 prostate; COLO 205 colon; MALME-3M melanoma; HOP-92 NSCLC; UACC-62 melanoma; SR leukemia; MDA-MB-435; SN12C renal.
What all share (assay): inhibition of tumour cell growth, NCI panel, 48 h

Regarding `COc1ccc2c(c1)N(Cc1ccc(Cl)cc1)CCC2N1CCCC1=O` (stereo not given), the GI50 in the test on BT-549 breast is 3.23 µM; with OVCAR-5 ovarian, 6.6 µM; with DU-145 prostate, 2.66 µM; in the test with COLO 205 colon, 5.33 µM; in the test on MALME-3M melanoma it was 3.99 µM; in the test on HOP-92 NSCLC, 2.75 µM. Also, the GI50 in the test on UACC-62 melanoma is 3.25 µM; in the test with SR leukemia it was 6.37 µM; in the test on MDA-MB-435 it was 3.77 µM; in the test with SN12C renal it was 4.68 µM. Besides, the TGI is 19.6 µM in the test with BT-549 breast; over 100 µM in the test on OVCAR-5 ovarian; over 100 µM with DU-145 prostate; 20 µM in the test on COLO 205 colon; 27.2 µM with MALME-3M melanoma; 20.5 µM in the test on HOP-92 NSCLC. The TGI with UACC-62 melanoma was 14.9 µM; in the test on SR leukemia it was over 100 µM; in the test on MDA-MB-435 it was 15 µM; in the test on SN12C renal, 89.1 µM.

On to `CC(=O)OCC1OC(n2cnc3nc(Br)[nH]c(=O)c32)C(OC(C)=O)C1OC(C)=O` (stereo not given), for which the TGI in the test on BT-549 breast, with OVCAR-5 ovarian, in the test with DU-145 prostate, with COLO 205 colon, in the test with MALME-3M melanoma and in the test with HOP-92 NSCLC was over 100 µM each time. For the same molecule, the TGI in the test on UACC-62 melanoma, in the test with SR leukemia, with MDA-MB-435 and in the test with SN12C renal was over 100 µM each time.

On to `COC(=O)c1c(O)ccc2c1c1cc3ccccc3cc1n2Cc1cc(OC)cc(OC)c1`, for which the TGI was over 100 µM in the test with BT-549 breast; over 100 µM in the test with OVCAR-5 ovarian; 59.1 µM in the test on DU-145 prostate; over 36.1 µM with COLO 205 colon; 64.3 µM in the test with MALME-3M melanoma; over 100 µM in the test on HOP-92 NSCLC. Moreover, the TGI in the test on UACC-62 melanoma is over 100 µM; in the test on SR leukemia it was over 100 µM; with MDA-MB-435, 1.86 µM; in the test on SN12C renal, over 100 µM.

As to `O=C1c2ccccc2C(=O)N1n1c(Cc2ccc(Cl)cc2)n[nH]c1=O`, the TGI with BT-549 breast, in the test with OVCAR-5 ovarian, in the test with DU-145 prostate, in the test on COLO 205 colon, in the test with MALME-3M melanoma and with HOP-92 NSCLC was over 100 µM each time. The TGI with UACC-62 melanoma, in the test on SR leukemia, in the test on MDA-MB-435 and in the test with SN12C renal was over 100 µM each time.

For the molecule `CCOP(=O)(CCCC(O)CNc1nc(N)nc(Cl)c1N=Nc1ccc(Cl)cc1)OCC` (stereo not given), the TGI is 20.8 µM in the test with BT-549 breast; 25.5 µM with OVCAR-5 ovarian; 18.2 µM in the test on DU-145 prostate; 20.4 µM in the test with COLO 205 colon; 20.9 µM in the test with MALME-3M melanoma; 25.8 µM with HOP-92 NSCLC. The TGI in the test on UACC-62 melanoma stood at 19.1 µM; with SR leukemia, 6.82 µM; in the test with MDA-MB-435, 19 µM; in the test with SN12C renal it was 18.2 µM.

In the case of `CCOC(=O)/C=C(/C(=O)OCC)n1cc(C)c(=O)n(Cc2cnnn2COCCOC(C)=O)c1=O`, the TGI is 31.7 µM with BT-549 breast; 36.9 µM in the test with OVCAR-5 ovarian; over 52.8 µM in the test with DU-145 prostate; 11.8 µM in the test with COLO 205 colon; 13.3 µM in the test on MALME-3M melanoma; 8.22 µM in the test with HOP-92 NSCLC. Moreover, the TGI came to 30.5 µM in the test with UACC-62 melanoma, 39.6 µM with SR leukemia, 38.2 µM in the test on MDA-MB-435 and 52.4 µM in the test on SN12C renal.

`Clc1cc(-c2ccccc2)nc(Nc2nc3ccccc3[nH]2)n1`: the TGI in the test with BT-549 breast was 52.9 µM; with OVCAR-5 ovarian, over 100 µM; in the test on DU-145 prostate, over 100 µM; in the test on COLO 205 colon it was 51 µM; in the test with MALME-3M melanoma, 69.1 µM; in the test with HOP-92 NSCLC, 5.25 µM. For the same molecule, the TGI in the test with UACC-62 melanoma was 35.4 µM; with SR leukemia, 10.5 µM; with MDA-MB-435, 83.4 µM; in the test with SN12C renal, 63 µM.

In the case of `COc1ccc(-n2c(SC(CN3CCOCC3)CN3CCCC3=O)nc3ccccc3c2=O)cc1` (stereo not given), the TGI in the test with BT-549 breast, in the test on OVCAR-5 ovarian, in the test with DU-145 prostate, in the test on COLO 205 colon, in the test on MALME-3M melanoma and in the test with HOP-92 NSCLC was over 100 µM throughout. Moreover, the TGI with UACC-62 melanoma, in the test with SR leukemia, with MDA-MB-435 and in the test on SN12C renal was over 100 µM throughout.

Regarding `COC(=O)CNC(=O)C(Cc1ccccc1)NC(=O)c1ccc(-c2ccc(Cl)cc2Cl)o1` (stereo not given), the TGI with BT-549 breast was over 100 µM; in the test with OVCAR-5 ovarian, over 100 µM; with DU-145 prostate, over 100 µM; in the test on COLO 205 colon, 30.2 µM; in the test on MALME-3M melanoma, 87.4 µM; with HOP-92 NSCLC, 39.1 µM. Besides, the TGI in the test with UACC-62 melanoma is 65.1 µM; with SR leukemia it was 36 µM; in the test on MDA-MB-435 it was over 100 µM; with SN12C renal it was over 100 µM.

`Cc1nnc(N)nc1/C=C\c1ccc(Cl)cc1Cl`: the TGI with BT-549 breast is over 100 µM; in the test with OVCAR-5 ovarian, over 100 µM; in the test on DU-145 prostate it was over 100 µM; in the test on COLO 205 colon it was 55.8 µM; in the test with MALME-3M melanoma, 59.3 µM; with HOP-92 NSCLC, over 100 µM. Moreover, the TGI in the test with UACC-62 melanoma, in the test with SR leukemia, in the test with MDA-MB-435 and in the test on SN12C renal was over 100 µM each time.

As to `CNC(=O)N(CCC#N)CCN(C(=O)NC)c1ccccc1`, the TGI with BT-549 breast, in the test with OVCAR-5 ovarian, with DU-145 prostate, with COLO 205 colon, in the test on MALME-3M melanoma and with HOP-92 NSCLC was over 100 µM throughout. Further, the TGI with UACC-62 melanoma, with SR leukemia, with MDA-MB-435 and with SN12C renal was over 100 µM in each case.

Turning to `N[C@H]1c2c(Br)sc(Br)c2C(=O)[C@H]1O`, the TGI with BT-549 breast was 16.5 µM; with OVCAR-5 ovarian, 60.7 µM; with DU-145 prostate, 39.4 µM; with COLO 205 colon, 22.2 µM; in the test with MALME-3M melanoma, 29.6 µM; in the test on HOP-92 NSCLC, 38.9 µM. Further, the TGI was found to be 23.7 µM with UACC-62 melanoma, 5.79 µM in the test with SR leukemia, 36.7 µM with MDA-MB-435 and 3.63 µM in the test with SN12C renal.

Take `CCC(=O)Nc1cccc(N=Cc2ccc(OC(=O)/C=C\c3ccccc3)cc2)c1`: the TGI in the test with BT-549 breast, in the test on OVCAR-5 ovarian, in the test on DU-145 prostate, in the test with COLO 205 colon, with MALME-3M melanoma and in the test on HOP-92 NSCLC was over 75 µM throughout. Besides, the TGI in the test with UACC-62 melanoma, with SR leukemia, with MDA-MB-435 and in the test on SN12C renal was over 75 µM throughout.

On to `O=c1c2c3c(sc2nc2n1N=CN(c1ccccc1)C2)CCCC3`, for which the TGI in the test on BT-549 breast, in the test with OVCAR-5 ovarian, in the test with DU-145 prostate, with COLO 205 colon, in the test with MALME-3M melanoma and in the test with HOP-92 NSCLC was over 100 µM in each case. Besides, the TGI in the test with UACC-62 melanoma, in the test with SR leukemia, with MDA-MB-435 and in the test with SN12C renal was over 100 µM throughout.

As for `O=C1/C(=C/c2ccc(O)cc2)CCCC1CN1CCCCC1` (stereo not given), the TGI with BT-549 breast amounted to 6.89 µM; with OVCAR-5 ovarian, 30.8 µM; with DU-145 prostate, 16.6 µM; in the test with COLO 205 colon, 4.02 µM; in the test with MALME-3M melanoma, 3.36 µM; in the test on HOP-92 NSCLC, 3.47 µM. Besides, the TGI amounted to 3.46 µM with UACC-62 melanoma, 4.35 µM in the test on SR leukemia, 21.3 µM with MDA-MB-435 and 7.05 µM with SN12C renal.

In the case of `COC(=O)Nc1nc2ccc(S(=O)(=O)Nc3ccccn3)cc2[nH]1`, the TGI in the test with BT-549 breast, with OVCAR-5 ovarian, in the test on DU-145 prostate, in the test with COLO 205 colon, with MALME-3M melanoma and with HOP-92 NSCLC was over 100 µM in each case. Besides, the TGI with UACC-62 melanoma was over 100 µM; in the test on SR leukemia it was 64.1 µM; with MDA-MB-435, 44.5 µM; in the test with SN12C renal it was over 100 µM.

Take `Cc1ccc(S(=O)(=O)N2CCC[C@@H]2C(=O)O[C@@H]2CCC3CC=CC32)cc1` (stereo not given in full): the TGI in the test on BT-549 breast was 44.3 µM; in the test on OVCAR-5 ovarian it was over 100 µM; in the test on DU-145 prostate, over 100 µM; with COLO 205 colon it was 31.2 µM; in the test on MALME-3M melanoma it was 90 µM; with HOP-92 NSCLC, 44 µM. The TGI with UACC-62 melanoma is over 100 µM; in the test with SR leukemia it was 61 µM; with MDA-MB-435, over 100 µM; in the test with SN12C renal, over 100 µM.

As to `C=C(C)[C@@H](O)[C@H](O)C[C@H](C)C1CC[C@]2(C)C1=CC[C@@H]1[C@@]3(C)CC[C@@H](OC(C)=O)C(C)(C)[C@@H]3C[C@@H](OC3OC(COC(C)=O)C(O)C(O)C3O)[C@]12C` (stereo not given in full), the TGI was determined as 10.3 µM with BT-549 breast; 4.43 µM in the test on OVCAR-5 ovarian; 11.1 µM in the test with DU-145 prostate; 3.39 µM with COLO 205 colon; 4.81 µM with MALME-3M melanoma; 6.17 µM in the test on HOP-92 NSCLC. For the same molecule, the TGI in the test on UACC-62 melanoma stood at 4.52 µM; in the test with SR leukemia, 4.2 µM; in the test on MDA-MB-435, 4.42 µM; in the test with SN12C renal it was 11.3 µM.

Turning to `Cn1c2ccc(F)cc2c2ccc3c(c21)C(=O)C=CC3=O`, the TGI is over 45 µM with BT-549 breast; over 73.4 µM in the test on OVCAR-5 ovarian; 43.3 µM in the test with DU-145 prostate; 21.6 µM in the test on COLO 205 colon; 23.2 µM with MALME-3M melanoma; 15.5 µM with HOP-92 NSCLC. For the same molecule, the TGI with UACC-62 melanoma is over 61.3 µM; in the test on SR leukemia, over 20.2 µM; with MDA-MB-435, 38.1 µM; with SN12C renal it was 31 µM.

Turning to `Clc1ccc(CCNC2(c3cc4ccccc4s3)CCCCC2)cc1Cl`, the TGI in the test on BT-549 breast was 84.5 µM; with OVCAR-5 ovarian, 68.1 µM; in the test with DU-145 prostate, over 100 µM; in the test on COLO 205 colon, 49.2 µM; in the test with MALME-3M melanoma, 36.9 µM; in the test with HOP-92 NSCLC, 29.8 µM. In addition, the TGI was 37.2 µM in the test on UACC-62 melanoma, 32.5 µM in the test on SR leukemia, over 100 µM in the test with MDA-MB-435 and over 100 µM in the test with SN12C renal.

`COC(=O)C(Cc1ccccc1)NC(=O)C(CS)NC(=O)OC(C)(C)C` (stereo not drawn) (Boc-Cys-Phe-OMe; configuration not given here): the TGI in the test on BT-549 breast, in the test on OVCAR-5 ovarian, in the test with DU-145 prostate, in the test with COLO 205 colon, in the test with MALME-3M melanoma and in the test on HOP-92 NSCLC was over 100 µM throughout. Also, the TGI with UACC-62 melanoma, in the test on SR leukemia, in the test with MDA-MB-435 and with SN12C renal was over 100 µM in each case.
